In brackets after ≈: the same amount, converted by molar mass.
What was measured:
[1] = test system: Influenza virus A/WSN/33 (H1N1); assay: microbe, parasite or virus in culture; format: cell-based; conditions: 72 h; viral strain: Influenza virus A/WSN/33 (H1N1); Cell: MDBK; […]; 3 days; read-out: IC50
in vitro = conditions: bovine; for CC50 at 72 h: mdbk cells

Structure (SMILES) | IC50 [1] | CC50 (in vitro) | CC50 at 72 h (in vitro)
C[C@H]1CC[C@H]2C(C)(C)C(=NN3CCOCC3)CC[C@]23Oc2c(c(O)cc4c2CNC4=O)C[C@]13C [Compound (51f), (6aR, 7S, 9aS, 13aS)-2,3,6,6a, 7,8,9,9a, 10, 11, 12, 13-dodecahydro-5-hydroxy-6a, 7, 10, 10-tetramethyl-11-(1-oxa-4-azacyclohex-4-yl)imino-3-oxo-1H-benzo[8,8a][1]benzopyrano[2,3-e]isoindole] | 0.05 µg/mL (≈ 0.107 µM) | 25 µg/mL (≈ 53.5 µM) | –
C[C@H]1CC[C@H]2C(C)(C)[C@@H](OC(=O)c3cccnc3)CC[C@]23Oc2c(c(O)cc4c2CNC4=O)C[C@]13C [Compound (35a), (6aR, 7S, 9aS, 11S, 13aS)-2,3,6,6a, 7,8,9,9a, 10, 11, 12, 13-dodecahydro-5-hydroxy-6a, 7, 10, 10-tetramethyl-3-oxo-11-[(3-pyridyl)carbonyloxy]-1H-benzo[8,8a][1]benzopyrano[2,3-e]isoindole] | 0.001 µg/mL (≈ 0.00204 µM) | 10 µg/mL (≈ 20.4 µM) | –
CON=C1CC[C@@]23Oc4c(c(O)cc5c4CNC5=O)C[C@]2(C)[C@@H](C)CC[C@H]3C1(C)C [Compound (51b), (6a R, 7 S, 9a S, 13a S)-2,3,6,6a, 7,8,9,9a, 10, 11, 12, 13-dodecahydro-5-hydroxy-11-methoxyimino-6a, 7, 10, 10-tetramethyl-3-oxo-1H-benzo[8,8a][1]benzopyrano[2,3-e]isoindole] | 0.003 µg/mL (≈ 0.00727 µM) | 5 to 10 µg/mL (≈ 12.1 to 24.2 µM) | –
C[C@H]1CC[C@H]2C(C)(C)C(=NNC(N)=O)CC[C@]23Oc2c(c(O)cc4c2CNC4=O)C[C@]13C [Compound (51d), (6a R, 7 S, 9a S, 13a S)-2,3,6,6a, 7,8,9,9a, 10, 11, 12, 13-dodecahydro-5-hydroxy-6a, 7, 10, 10-tetramethyl-3-oxo-11-ureidoimino-1H-benzo[8,8a][1]benzopyrano[2,3-e]isoindole] | 0.005 µg/mL (≈ 0.0113 µM) | > 10 µg/mL | –
C[C@H]1CC[C@H]2C(C)(C)C(=NO)CC[C@]23Oc2c(c(O)cc4c2CNC4=O)C[C@]13C [Compound (51a), (6a R, 7 S, 9a S, 13a S)-2,3,6,6a, 7,8,9,9a, 10, 11, 12, 13-dodecahydro-5-hydroxy-11-hydroxyimino-6a, 7, 10, 10-tetramethyl-3-oxo-1H-benzo[8,8a][1]benzopyrano[2,3-e]isoindole] | 0.0016 µg/mL (≈ 0.00402 µM) | > 10 µg/mL | –
C[C@@H]1NC(=O)c2cc(O)c3c(c21)O[C@@]12CC[C@H](O)C(C)(C)[C@@H]1CC[C@H](C)[C@@]2(C)C3 [Compound (67a), (1S, 6aR, 7S, 9aS, 11S, 13aS)-2,3,6,6a, 7,8,9,9a, 10, 11, 12, 13-dodecahydro-5, 11-dihydroxy-1,6a, 7, 10, 10-pentamethyl-3-oxo-1H-benzo[8,8a][1]benzopyrano[2,3-e]isoindole] | 0.016 µg/mL (≈ 0.04 µM) | 6.3 to 12.5 µg/mL (≈ 15.8 to 31.3 µM) | –
C[C@H]1CC[C@H]2C(C)(C)[C@@H](N)CC[C@]23Oc2c(c(O)cc4c2CNC4=O)C[C@]13C [Compound (47a), (6aR, 7S, 9aS, 11S, 13aS)-11-amino-2,3,6,6a, 7,8,9,9a, 10, 11, 12, 13-dodecahydro-5-hydroxy-6a, 7, 10, 10-tetramethyl-3-oxo-1H-benzo[8,8a][1]benzopyrano[2,3-e]isoindole] | 0.02 µg/mL (≈ 0.052 µM) | > 10 µg/mL | –
CCCCN1C(=O)c2cc(O)c3c(c2C1=O)O[C@@]12CC[C@H](O)C(C)(C)[C@@H]1CC[C@H](C)[C@@]2(C)C3 [Compound (32c), (6aR, 7S, 9aS, 11S, 13aS)-2-butyl-2,3,6,6a, 7,8,9,9a, 10, 11, 12, 13-dodecahydro-5, 11-dihydroxy-6a, 7, 10, 10-tetramethyl-13-dioxo-1H-benzo[8,8a][1]benzopyrano[2,3-e]isoindole] | 0.04 to 0.08 µg/mL (≈ 0.0878 to 0.176 µM) | – | 5 µg/mL (≈ 11 µM)
C[C@H]1CC[C@H]2C(C)(C)[C@@H](O)CC[C@]23Oc2c(c(O)cc4c2CNC4)C[C@]13C [Compound (34a), (6aR, 7S, 9aS, 11S, 13aS)-2,3,6,6a, 7,8,9,9a, 10, 11, 12, 13-dodecahydro-5, 11-dihydroxy-6a, 7,10,10-tetramethyl-1H-benzo[8,8a][1]benzopyrano[2,3-e]isoindole] | 0.04 µg/mL (≈ 0.108 µM) | > 10 µg/mL | –
CC(=O)O[C@H]1C[C@@]23Oc4c(c(O)cc5c4CNC5=O)C[C@]2(C)[C@@H](C)CC[C@H]3C(C)(C)[C@H]1O [Compound (50b), (6a R, 7 S, 9a S, 11 R, 12 S, 13a S)-12-acetoxy-2,3,6,6a,7,8,9,9a, 10, 11, 12, 13-dodecahydro-5,11-dihydroxy-6a, 7, 10, 10-tetramethyl-3-oxo-1H-benzo[8,8a][1]benzopyrano[2,3-e]isoindole] | 0.01 µg/mL (≈ 0.0225 µM) | > 10 µg/mL | –
CCCCN1Cc2c(cc(O)c3c2O[C@@]24CC[C@H](O)C(C)(C)[C@@H]2CC[C@H](C)[C@@]4(C)C3)C1=O [Compound (28b), (6aR, 7S, 9aS, 11S, 13aS)-2-butyl-2,3,6,6a, 7,8,9,9a, 10, 11, 12, 13-dodecahydro-5, 11-dihydroxy-6a, 7, 10, 10-tetramethyl-3-oxo-1H-benzo[8,8a][1]benzopyrano[2,3-e]isoindole] | 0.02 µg/mL (≈ 0.0453 µM) | 2.5 µg/mL (≈ 5.66 µM) | –
C[C@H]1CC[C@H]2C(C)(C)[C@@H](NS(=O)(=O)c3ccccc3)CC[C@]23Oc2c(c(O)cc4c2CNC4=O)C[C@]13C [Compound (47d), (6aR, 7S, 9aS, 11S, 13aS)-2,3,6,6a, 7,8,9,9a, 10, 11, 12, 13-dodecahydro-5-hydroxy-6a, 7, 10, 10-tetramethyl-11-phenylsulfonylamino-3-oxo-1H-benzo[8,8a][1]benzopyrano[2,3-e]isoindole] | 0.003 µg/mL (≈ 0.00572 µM) | 5 to 10 µg/mL (≈ 9.53 to 19.1 µM) | –
C[C@H]1CC[C@H]2C(C)(C)[C@@H](O)CC[C@]23Oc2c(c(O)cc4c2CN(C)C4=O)C[C@]13C [Compound (28a), (6aR, 7S, 9aS, 11S, 13aS)-2,3,6,6a, 7,8,9,9a, 10, 11, 12, 13-dodecahydro-5, 11-dihydroxy-2,6a, 7, 10, 10-pentamethyl-3-oxo-1H-benzo[8,8a][1]benzopyrano[2,3-e]isoindole] | 0.02 µg/mL (≈ 0.0501 µM) | 10 to 20 µg/mL (≈ 25 to 50.1 µM) | –
C[C@H]1CC[C@H]2C(C)(C)C=CC[C@]23Oc2c(c(O)cc4c2CNC4=O)C[C@]13C [Compound (41a), (6a R, 7 S, 9a S, 13a S)-2,3,6,6a, 7,8,9,9a, 10, 13-decahydro-5-hydroxy-6a, 7, 10, 10-tetramethyl-3-oxo-1H-benzo[8,8a][1]benzopyrano[2,3-e]isoindole] | 0.002 µg/mL (≈ 0.00544 µM) | 5 µg/mL (≈ 13.6 µM) | –
C[C@H]1CC[C@H]2C(C)(C)[C@@H](OC(=O)c3cnccn3)CC[C@]23Oc2c(c(O)cc4c2CNC4=O)C[C@]13C [Compound (35b), (6aR, 7S, 9aS, 11S, 13aS)-2,3,6,6a, 7,8,9,9a, 10, 11, 12, 13-dodecahydro-5-hydroxy-6a, 7, 10, 10-tetramethyl-3-oxo-11-[(2-pyrazyl)carbonyloxy]-1H-benzo[8,8a][1]benzopyrano[2,3-e]isoindole] | 0.002 to 0.004 µg/mL (≈ 0.00407 to 0.00814 µM) | – | 10 µg/mL (≈ 20.3 µM)
CC(=O)O[C@@H]1C(=NO)C[C@@]23Oc4c(c(O)cc5c4CNC5=O)C[C@]2(C)[C@@H](C)CC[C@H]3C1(C)C [Compound (53b), (6aR, 7S, 9aS, 11S, 13aS)-11-acetoxy-2,3,6,6a, 7,8,9,9a, 10, 11, 12, 13-dodecahydro-5-hydroxy-12-hydroxyimino-6a, 7, 10, 10-tetramethyl-3-oxo-1H-benzo[8,8a][1]benzopyrano[2,3-e]isoindole] | 0.08 µg/mL (≈ 0.175 µM) | > 10 µg/mL | –

From patent EP0855398B1, “SESQUITERPENE DERIVATIVES HAVING ANTIVIRAL ACTIVITY” (SHIONOGI & CO., LTD., priority 1995, dated 1997)
